# Results reported in patent US20250177532A1, “TEMPERATURE-SENSITIVE HYDROGEL FOR CANCER TREATMENT CAPABLE OF PHOTOTHERMAL THERAPY AND PREPARATION METHOD THEREFOR” (KOREA NATIONAL UNIVERSITY OF TRANSPORTATION …, priority 2022, published 2025).
# Tested on: 4T1 cells
# Test: Photothermal effect in vitro: cell viability by WST-1 assay with/without near-infrared irradiation
# Conditions: Triton X 0.1%
# Protocol: To evaluate photothermal effect in in vitro, cells were seeded (1×10^4 cells/well) in 96 well-plate and incubated for 12 h. […] Then, the well was irradiated with near-infrared light for 5 min and incubated again for 24 hours. Then, cell viability was measured using WST-1 assay.
substance,measurement,setting,value
Triton X,Cell viability (%),"control of Table 1 (GNS experiment, near-infrared irradiation)",5.02%
same,Cell viability (%),"control of Table 2, NIR irradiated",10.58%
same,Cell viability (%),"control of Table 2, no NIR",10.23%
